Converted amounts (≈) assume the structure as drawn. Counter-ions that a name gives are not always drawn. Like-named read-outs stand apart in the source and are kept apart here. A value given as a limit tells only on which side of the number the result lay.

A word on the AUC: it is concentration integrated over time. As usually defined, the Cmax is the highest concentration seen after dosing.

One data set has as its system H. influenzae A20178. The experiment in a line: In vitro MIC by tube dilution, H. influenzae A20178. As to conditions: Haemophilus influenzae. Format: cell-based.
The test system of the next data set is H. influenzae A21522. As to the kind of experiment: In vitro MIC by tube dilution, H. influenzae A21522. It counts as cell-based. To be noted: Haemophilus influenzae.
The subject of another data set is S. pneumoniae A-9585. The experiment in a line: In vitro MIC by tube dilution, S. pneumoniae A-9585. Format: cell-based.
Another data set has as its system S. pyogenes A9604. The experiment in a line: In vitro MIC by tube dilution, S. pyogenes A9604. It counts as cell-based.
The subject of the next data set is S. aureus A-9537. As to the kind of experiment: In vitro MIC by tube dilution, S. aureus A-9537. It counts as cell-based.
Data set [1] relates to S. aureus A-9606 (Pen-res.). The experiment in a line: In vitro MIC by tube dilution, S. aureus A-9606 (Pen-res.). Format: cell-based. As to conditions: S. aureus A-9606 (Pen-res).
The test system of another data set is S. faecalis A20688. As to the kind of experiment: In vitro MIC by tube dilution, S. faecalis A20688. It counts as cell-based.
Another data set deals with E. coli A15119. As to the kind of experiment: In vitro MIC by tube dilution, E. coli A15119. Format: cell-based. As to conditions: E. coli A15119.
In another data set the test system is E. coli A20341-1. As to the kind of experiment: In vitro MIC by tube dilution, E. coli A20341-1. Format: cell-based.
A further data set deals with K. pneumoniae A-9664. The experiment in a line: In vitro MIC by tube dilution, K. pneumoniae A-9664. It counts as cell-based.
Another data set concerns K. pneumoniae A20468. As to the kind of experiment: In vitro MIC by tube dilution, K. pneumoniae A20468. It counts as cell-based.
In another data set the test system is P. mirabilis A-9900. As to the kind of experiment: In vitro MIC by tube dilution, P. mirabilis A-9900. Format: cell-based.
Another data set has as its system P. morganii A15153. The experiment in a line: In vitro MIC by tube dilution, P. morganii (M. morganii) A15153. Format: cell-based.
The next data set concerns P. rettgeri A22424. As to the kind of experiment: In vitro MIC by tube dilution, P. rettgeri A22424. It counts as cell-based.
Another data set deals with S. marcescens A20019. As to the kind of experiment: In vitro MIC by tube dilution, S. marcescens A20019. It counts as cell-based.
For the next data set, the system named is E. cloacae A-9656. As to the kind of experiment: In vitro MIC by tube dilution, E. cloacae A-9656. Format: cell-based.
Data set [2] has as its system P. aeruginosa A-9843A. The experiment in a line: In vitro MIC by tube dilution, P. aeruginosa A-9843A. It counts as cell-based. As to conditions: P. aeruginosa A-9843a.
Another data set deals with H. influenzae A-9833. The experiment in a line: In vitro MIC by tube dilution, H. influenzae A-9833. It counts as cell-based. To be noted: Haemophilus influenzae, A9833.
The next data set deals with H. influenzae A21518. The experiment in a line: In vitro MIC by tube dilution, H. influenzae A21518. It counts as cell-based. As to conditions: Haemophilus influenzae.
A further data set has as its system E. cloacae A-9659. The experiment in a line: In vitro MIC by tube dilution, E. cloacae A-9659. It counts as cell-based.
Another data set relates to P. vulgaris A21559. As to the kind of experiment: In vitro MIC by tube dilution, P. vulgaris A21559. Format: cell-based. As to conditions: P. vulgaris A21559.
A further data set relates to P. aeruginosa A21213. As to the kind of experiment: In vitro MIC by tube dilution, P. aeruginosa A21213. Format: cell-based. To be noted: P. aeruginosa A21213.
For data set [3], the system named is P. aeruginosa A-9843a. Format: in vivo. As to conditions: P. aeruginosa A9843A, mice, i.m.
Description: The PD50 (dose in mg/kg required to give protection to 50% of the infected mice) is indicated.
Treatment Schedule: Except for E. coli A15119 and K. pneumoniae A9964,
mice were treated i.m. with drugs 0 and 2 hours postinfection.
5 mice per dose were used for each test
The PD50 (dose in mg/kg) required to give protection to 50% of the infected mice is indicated.
Data set [4] is described as follows: Blood levels in mice after intramuscular administration. To be noted: 20 mg/kg i.m., mice (compiled table).
Excerpt: Compounds were solubilized in 0.1 M phosphate buffer pH 7.
Values are from a single test; 4 mice used per compound.
Compounds were solubilized in 0.1 M phosphate buffer, pH 7.
Values based on a single test; 4 mice per compound.

For `C[C@@H](O)[C@H]1C(=O)N2C(C(=O)[O-])=C(SCc3cc[n+](C)cc3)C[C@H]12` [Example 1, 1-Methyl-4-[2-carboxy-6α-[1(R)-hydroxyethyl]-7-oxo-1-azabicyclo[3.2.0]hept-2-en-3-thiomethyl]pyridinium hydroxide inner salt], the MIC with H. influenzae A20178 is 32 µg/mL; against H. influenzae A21522 it was 8 µg/mL.
Regarding `Cc1ccc[n+](C)c1CSC1=C(C(=O)[O-])N2C(=O)[C@H]([C@@H](C)O)[C@H]2C1` [Example 7, 3-(N-Methyl-3-methylpyridine-2-methanethio)-6α-[1-(R)-hydroxyethyl]-7-oxo-1-azabicyclo(3.2.0)hept-2-ene-2-carboxylate], the MIC turned out to be 0.004 µg/mL (≈ 0.0115 µM) in the data set on S. pneumoniae A-9585 (Streptococcus pneumoniae, A9585, S. pneumoniae A-9585, read-out: MIC); 0.004 µg/mL (≈ 0.0115 µM) in the data set on S. pyogenes A9604 (Streptococcus pyogenes, A9604, S. pyogenes A-9604, read-out: MIC); 0.03 µg/mL (≈ 0.0861 µM) with S. aureus A-9537 (Staphylococcus aureus, A9537, S. aureus A-9537 +50% serum, read-out: MIC); 0.008 µg/mL (≈ 0.023 µM) with S. aureus A-9537 (Staphylococcus aureus, A9537, S. aureus A-9537, no serum, read-out: MIC); 0.016 µg/mL (≈ 0.0459 µM) in data set [1] (Staphylococcus aureus, read-out: MIC); 0.13 µg/mL (≈ 0.373 µM) in the data set on S. faecalis A20688 (Enterococcus faecalis, A20688, S. faecalis A20688, read-out: MIC). Also, the MIC with E. coli A15119 (Escherichia coli, read-out: MIC) worked out at 0.004 µg/mL (≈ 0.0115 µM); in the data set on E. coli A20341-1 (Escherichia coli, A203411, read-out: MIC) it was 0.004 µg/mL (≈ 0.0115 µM); in the data set with K. pneumoniae A-9664 (Klebsiella pneumoniae, A9664, read-out: MIC), 0.016 µg/mL (≈ 0.0459 µM); in the data set on K. pneumoniae A20468 (Klebsiella pneumoniae, A20468, K. pneumoniae A20468, read-out: MIC), 0.016 µg/mL (≈ 0.0459 µM); in the data set with P. mirabilis A-9900 (Proteus mirabilis, A9900, P. mirabilis A-9900, read-out: MIC) it was 0.016 µg/mL (≈ 0.0459 µM); in the data set with P. morganii A15153 (Morganella morganii, A15153, M. morganii A15153, read-out: MIC), 0.016 µg/mL (≈ 0.0459 µM). The MIC in the data set with P. rettgeri A22424 (Providencia rettgeri, A22424, P. rettgeri A22424, read-out: MIC) is 0.06 µg/mL (≈ 0.172 µM); in the data set with S. marcescens A20019 (Serratia marcescens, read-out: MIC), 0.008 µg/mL (≈ 0.023 µM); with E. cloacae A-9656 (Enterobacter cloacae, A9656, E. cloacae A-9656, read-out: MIC) it was 0.016 µg/mL (≈ 0.0459 µM); in the data set with P. aeruginosa A-9843A [2] (Pseudomonas aeruginosa, A9843A, read-out: MIC), 1 µg/mL (≈ 2.87 µM); in the data set with H. influenzae A-9833, greater than 32 µg/mL; against H. influenzae A21518, greater than 32 µg/mL. Further, in the data set on E. cloacae A-9659 (Enterobacter cloacae, A9659, E. cloacae A-9659, read-out: MIC), the MIC came to 0.016 µg/mL (≈ 0.0459 µM).
Take “3-[4-(N,N-dimethyl-1,2,3-triazolium)methylthio]-6α-[1-(R)-hydroxyethyl]-7-oxo-1-azabicyclo(3.2.0)hept-2-ene-2-carboxylate [Example 15 "B"]”: the MIC against S. pneumoniae A-9585 (S. pneumoniae A-9585) is 0.0005 µg/mL; in the data set on S. pyogenes A9604 (S. pyogenes A-9604) it was 0.001 µg/mL; against S. aureus A-9537 (S. aureus A-9537 +50% serum), 0.016 µg/mL; against S. aureus A-9537 (S. aureus A-9537, no serum), 0.004 µg/mL; in data set [1] it was 0.008 µg/mL; in the data set on S. faecalis A20688 (S. faecalis A20688), 0.5 µg/mL. The MIC is 0.008 µg/mL in the data set on E. coli A15119; 0.008 µg/mL with E. coli A20341-1; 0.03 µg/mL with K. pneumoniae A-9664; 0.016 µg/mL in the data set with K. pneumoniae A20468 (K. pneumoniae A20468); 0.03 µg/mL with P. mirabilis A-9900 (P. mirabilis A-9900); 0.008 µg/mL against P. vulgaris A21559. Moreover, the MIC came out at 0.06 µg/mL in the data set with P. morganii A15153 (M. morganii A15153); 0.13 µg/mL in the data set with P. rettgeri A22424 (P. rettgeri A22424); 0.016 µg/mL against S. marcescens A20019; 0.03 µg/mL with E. cloacae A-9656 (E. cloacae A-9656); 2 µg/mL in the data set on P. aeruginosa A-9843A [2]; 0.13 µg/mL with P. aeruginosa A21213. This compound also gave an MIC with E. cloacae A-9659 (E. cloacae A-9659) of 0.016 µg/mL. The PD50/treatment in the data set on P. aeruginosa A-9843a [3] was 0.89 mg/kg. Besides, the AUC in [4] was determined as 7400 ng·h/mL. The compound also returned a Cmax in data set [4] of 15900 ng/mL.
